Data taken from ChEMBL document CHEMBL4765332, “A multi-scale systems pharmacology approach uncovers the anti-cancer molecular mechanism of Ixabepilone” (Eur J Med Chem, 2020).
Calls of active or inactive are those of the source. No cut-off for these calls is given here.

Legend:
[1] = target: T1, Apoptosis regulator Bcl-2 (Homo sapiens, UniProt P10415); experiment: Induction of Bcl-2 phosphorylation-mediated protein degradation in human MDA-MB-231 cells assessed as disruption of Bcl2/Beclin1 interaction at 0.2 uM measured after 48 hrs by co-immunoprecipitation analysis; type: cell-based
T1 sequence (P10415 whole entry): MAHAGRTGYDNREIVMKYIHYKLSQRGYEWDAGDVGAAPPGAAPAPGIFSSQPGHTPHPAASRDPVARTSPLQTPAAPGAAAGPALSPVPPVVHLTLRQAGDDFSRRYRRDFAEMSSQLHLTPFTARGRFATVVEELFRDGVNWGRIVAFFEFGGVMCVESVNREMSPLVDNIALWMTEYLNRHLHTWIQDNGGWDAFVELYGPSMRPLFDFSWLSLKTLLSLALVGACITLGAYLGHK

U-251 = experiment: Induction of autophagy in human U251 cells assessed as increase in LC3-II expression at 0.4 to 6.4 uM measured after 48 hrs by western blot analysis; type: functional, cell-based; conditions: dose 0.4-6.4 µM
BT-549 [2] = experiment: Induction of apoptosis in human BT-549 cells transfected with Beclin1 siRNA assessed as increase in cleaved PARP level measured after 48 hrs by western blot analysis; type: functional, cell-based
MDA-MB-231 [3] = experiment: Induction of autophagy in human MDA-MB-231 cells assessed as increase in LC3-II level measured after 48 hrs by Western blot analysis; type: functional, cell-based; conditions: dose 0.05-0.4 µM
MDA-MB-231 [4] = experiment: Cytotoxicity against human MDA-MB-231 cells at 0.1 to 1.6 uM measured after 48 hrs in presence of 20 uM autophagy inhibitor, chloroquine by CCK8 assay; type: functional, cell-based; conditions: dose 0.1-1.6 µM
BT-549 [5] = experiment: Induction of autophagy in human BT-549 cells assessed increase in LC3-II level at 0.1 to 0.2 uM preincubated with 20 uM autophagosome-lysosome fusion inhibitor, chloroquine for 1 hr followed by incubation with compound for 48 hrs by western blot analysis; type: functional, cell-based; conditions: dose 0.1-0.2 µM
BT-549 [6] = experiment: Cytotoxicity against human BT-549 cells at 0.1 to 1.6 uM measured after 48 hrs in presence of 20 uM autophagy inhibitor, chloroquine by CCK8 assay; type: functional, cell-based; conditions: dose 0.1-1.6 µM
MCF7 [7] = experiment: Cytotoxicity against human MCF-7 cells at 0.1 to 1.6 uM measured after 48 hrs in presence of 20 uM autophagy inhibitor, chloroquine by CCK8 assay; type: functional, cell-based; conditions: dose 0.1-1.6 µM
[8] = target: T1, Apoptosis regulator Bcl-2; experiment: Upregulation of Bcl-2 phosphorylation at Ser70 residue in human MDA-MB-231 cells at 0.1 microM incubated for 12 to 36 hrs by western blot analysis; type: cell-based; conditions: time 12-36 hrs
BT-549 [9] = experiment: Induction of apoptosis in human BT-549 cells assessed as increase in cleaved PARP level pretreated with 20 uM autophagy inhibitor, CQ for 1 hr followed by incubation with drug for 48 hrs by western blot analysis; type: functional, cell-based
[10] = target: T1, Apoptosis regulator Bcl-2; experiment: Induction of Bcl-2 phosphorylation-mediated protein degradation in human U251 cells assessed as decrease in Bcl-2 expression at 0.4 uM measured after 12 to 48 hrs by western blot analysis; type: cell-based; conditions: U-251, time 12-48 hrs
MDA-MB-231 [11] = experiment: Antitumor activity against human MDA-MB-231 cells xenografted in BALB/c mouse assessed as tumor growth inhibition at 3 mg/kg, ip administered every other day measured every 3 days by vernier caliper analysis; type: functional, organism-based
Mus musculus = experiment: Downregulation of Ki67 expression in tumor tissue of BALB/c mouse xenografted with human MDA-MB-231 cells at 3 mg/kg, ip administered with compound every other day and with 10 mg/kg, ip CQ every day by immunohistochemical staining; type: functional, organism-based
MDA-MB-231 [12] = experiment: Induction of apoptosis in human MDA-MB-231 cells assessed as increase in cleaved caspase 3 level pretreated with 20 uM autophagy inhibitor, CQ for 1 hr followed by incubation with drug for 48 hrs by western blot analysis; type: functional, cell-based
BT-549 [13] = experiment: Induction of apoptosis in human BT-549 cells transfected with Beclin1 siRNA assessed as increase in cleaved caspase-3 level measured after 48 hrs by western blot analysis; type: functional, cell-based
MDA-MB-231 [14] = experiment: Antitumor activity against human MDA-MB-231 cells xenografted in BALB/c mouse assessed as tumor growth inhibition at 3 mg/kg, ip administered with compound every other day and with 10 mg/kg, ip CQ every day and measured every 3 days by vernier caliper analysis; type: functional, organism-based
BT-549 [15] = experiment: Induction of apoptosis in human BT-549 cells assessed as late apoptotic cells incubated for 48 hrs in presence of 20 uM autophagy inhibitor, CQ by AnnexinV-FITC and propidium iodide staining based flow cytometry analysis(reference value: 2.64%); type: functional
[16] = target: T1, Apoptosis regulator Bcl-2; experiment: Upregulation of Bcl-2 phosphorylation at Ser70 residue in human MCF7 cells at 0.05 to 0.4 microM incubated for 48 hrs by western blot analysis; type: cell-based; conditions: dose 0.05-0.4 µM
BT-549 [17] = experiment: Induction of autophagy in human BT-549 cells assessed as increase in LC3-II level measured after 48 hrs by Western blot analysis; type: functional, cell-based; conditions: dose 0.05-0.4 µM
MDA-MB-231 [18] = experiment: Induction of autophagy in human MDA-MB-231 cells assessed as increase in LC3-II level at 0.1 uM by Western blot analysis; type: functional, cell-based; conditions: time 12-48 hrs, TDE = time-dependent effect
BT-549 [19] = experiment: Induction of autophagy in human BT-549 cells transfected with GFP-LC3 assessed as increase in GFP-LC3 puncta formation after 12 hrs by fluorescence microscopic analysis; type: functional, cell-based
MDA-MB-231 [20] = experiment: Induction of apoptosis in human MDA-MB-231 cells assessed as increase in cleaved PARP level pretreated with 20 uM autophagy inhibitor, CQ for 1 hr followed by incubation with drug for 48 hrs by western blot analysis; type: functional, cell-based
BT-549 [21] = experiment: Induction of apoptosis in human BT-549 cells assessed as necrotic cells incubated for 48 hrs in presence of 20 uM autophagy inhibitor, CQ by AnnexinV-FITC and propidium iodide staining based flow cytometry analysis(reference value: 0.86%); type: functional
BT-549 [22] = experiment: Induction of apoptosis in human BT-549 cells assessed as early apoptotic cells incubated for 48 hrs in presence of 20 uM autophagy inhibitor, CQ by AnnexinV-FITC and propidium iodide staining based flow cytometry analysis(reference value: 1.94%); type: functional
MDA-MB-231 [23] = experiment: Effect on Beclin1 expression in human MDA-MB-231 cells at 0.2 uM measured after 48 hrs by western blot analysis; type: functional, cell-based
MCF7 [24] = experiment: Induction of autophagy in human MCF-7 cells assessed as increase in LC3-II level measured after 48 hrs by Western blot analysis; type: functional, cell-based; conditions: dose 0.05-0.4 µM
HepG2 = experiment: Cytotoxicity against human HepG2 cells at 0.1 to 1.6 uM measured after 48 hrs in presence of 20 uM autophagy inhibitor, chloroquine by CCK8 assay; type: functional, cell-based; conditions: dose 0.1-1.6 µM
[25] = target: T1, Apoptosis regulator Bcl-2; experiment: Induction of Bcl-2 phosphorylation-mediated protein degradation in human BT549 cells assessed as decrease in Bcl-2 expression at 0.1 to 0.2 uM pretreated with proteasome inhibitor, MG132 for 2 hrs followed by incubation with compound for 48 hrs by western blot analysis; type: cell-based; conditions: BT-549, dose 0.1-0.2 µM
BT-549 [26] = experiment: Induction of autophagy in human BT-549 cells assessed as increase in LC3-II level at 0.1 uM by Western blot analysis; type: functional, cell-based; conditions: time 12-48 hrs, TDE = time-dependent effect
[27] = target: T1, Apoptosis regulator Bcl-2; experiment: Induction of Bcl-2 phosphorylation-mediated protein degradation in human MCF7 cells assessed as decrease in Bcl-2 expression measured after 48 hrs by western blot analysis; type: cell-based; conditions: dose 0.05-0.4 µM
[28] = target: T1, Apoptosis regulator Bcl-2; experiment: Upregulation of Bcl-2 phosphorylation at Ser70 residue in human MCF7 cells at 0.1 microM incubated for 12 to 36 hrs by western blot analysis; type: cell-based; conditions: time 12-36 hrs

C/C(=C\c1csc(C)n1)[C@@H]1C[C@@H]2O[C@]2(C)CCC[C@H](C)[C@H](O)[C@@H](C)C(=O)C(C)(C)[C@@H](O)CC(=O)N1 [IXABEPILONE]
Activity [1]: Active | Activity (U-251): Active | Activity (BT-549 [2]): Active | Activity (MDA-MB-231 [3]): Dose-dependent effect | Activity (MDA-MB-231 [4]): Active | Activity (BT-549 [5]): Active | Activity (BT-549 [6]): Active | Activity (MCF7 [7]): Active | Activity [8]: Active | Activity (BT-549 [9]): Active | Activity [10]: Active | Activity (MDA-MB-231 [11]): Active | inhibition (Mus musculus): Active | Activity (MDA-MB-231 [12]): Active | Activity (BT-549 [13]): Active | Activity (MDA-MB-231 [14]): Active | Activity (BT-549 [15]): 18% | Activity [16]: Active | Activity (BT-549 [17]): Dose-dependent effect | Activity (MDA-MB-231 [18]): Tde | Activity (BT-549 [19]): Active | Activity (MDA-MB-231 [20]): Active | Activity (BT-549 [21]): 3.53% | Activity (BT-549 [22]): 4.2% | Activity (MDA-MB-231 [23]): inactive | Activity (MCF7 [24]): Dose-dependent effect | Activity (HepG2): Active | Activity [25]: inactive | Activity (BT-549 [26]): Tde | Activity [27]: Dose-dependent effect | Activity [28]: Active
